From PubChem BioAssay AID2060341 (Molecular Pharmacology Branch, DTP, NCI, 2025)
Where “and” joins values, the source holds several entries; their conditions need not be identical. Equal values may be shown once.

Test system: 327498-153-R-J2-PDC multicell spheroid viability
Assay: Anticancer human tumor 327498-153-R-J2-PDC patient-derived uterine carcinosarcoma cell line growth inhibition [IpAb]
Details: for viability, T/C: stronger effect = lower value
How it was run: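 Spheroids of 60% malignant cells, 25% HUVEC and 15% MSC were exposed to targeted agents combined with ipatasertib or abemaciclib. Doses started at or near clinical Cmax (10 microM when unknown) and fell in half-log steps.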

[1] = curve of first compound, second compound 0.01 µM
[2] = curve of first compound, second compound 0.0316 µM
[3] = curve of first compound, second compound 0.1 µM
[4] = curve of first compound, second compound 0.316 µM
[5] = curve of first compound, second compound 1 µM
[6] = second compound 0.1 µM, first compound 0.000316 µM
[7] = second compound 0.1 µM, first compound 0.001 µM
[8] = second compound 0.1 µM, first compound 0.00316 µM
[9] = second compound 0.1 µM, first compound 0.01 µM
[10] = second compound 0.1 µM, first compound 0.0316 µM
[11] = second compound 0.1 µM, first compound 0.1 µM
[12] = second compound 0.316 µM, first compound 0.000316 µM
[13] = second compound 0.316 µM, first compound 0.001 µM
[14] = second compound 0.316 µM, first compound 0.00316 µM
[15] = second compound 0.316 µM, first compound 0.01 µM
[16] = second compound 0.316 µM, first compound 0.0316 µM
[17] = second compound 0.316 µM, first compound 0.1 µM
[18] = second compound 1 µM, first compound 0.000316 µM
[19] = second compound 1 µM, first compound 0.001 µM
[20] = second compound 1 µM, first compound 0.00316 µM
[21] = second compound 1 µM, first compound 0.01 µM
[22] = second compound 1 µM, first compound 0.0316 µM
[23] = second compound 1 µM, first compound 0.1 µM
[24] = curve of first compound, second compound 3.16 µM
[25] = curve of first compound, second compound 10 µM
[26] = second compound 3.16 µM, first compound 0.0316 µM
[27] = second compound 3.16 µM, first compound 0.1 µM
[28] = second compound 10 µM, first compound 0.0316 µM
[29] = second compound 10 µM, first compound 0.1 µM
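For viability, T/C in this document: 100% = DMSO vehicle control viability.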

CC(C)n1nc(-c2ccc3oc(N)nc3c2)c2c(N)ncnc21 + CCN1CCN(Cc2ccc(Nc3ncc(F)c(-c4cc(F)c5nc(C)n(C(C)C)c5c4)n3)nc2)CC1
IC50 [1]: 7.33 nM | IC50 [2]: 4.58 nM | IC50 [3]: 2.01 nM | IC50 [4]: 1.03 nM | IC50 [5]: 1.17 nM | viability, T/C (second compound 0.01 µM, first compound 0.000316 µM): 90.9% | viability, T/C (second compound 0.01 µM, first compound 0.001 µM): 77.3% | viability, T/C (second compound 0.01 µM, first compound 0.00316 µM): 68.1% | viability, T/C (second compound 0.01 µM, first compound 0.01 µM): 45.6% | viability, T/C (second compound 0.01 µM, first compound 0.0316 µM): 21.2% | viability, T/C (second compound 0.01 µM, first compound 0.1 µM): 16.1% | viability, T/C (second compound 0.0316 µM, first compound 0.000316 µM): 68.7% | viability, T/C (second compound 0.0316 µM, first compound 0.001 µM): 73.6% | viability, T/C (second compound 0.0316 µM, first compound 0.00316 µM): 53.8% | viability, T/C (second compound 0.0316 µM, first compound 0.01 µM): 37.1% | viability, T/C (second compound 0.0316 µM, first compound 0.0316 µM): 19.8% | viability, T/C (second compound 0.0316 µM, first compound 0.1 µM): 14.8% | viability, T/C [6]: 58.2% | viability, T/C [7]: 50.3% | viability, T/C [8]: 49.8% | viability, T/C [9]: 31.4% | viability, T/C [10]: 20.7% | viability, T/C [11]: 14.6% | viability, T/C [12]: 59.2% | viability, T/C [13]: 50.1% | viability, T/C [14]: 39.5% | viability, T/C [15]: 28.5% | viability, T/C [16]: 20.3% | viability, T/C [17]: 15.2% | viability, T/C [18]: 56.9% | viability, T/C [19]: 50.8% | viability, T/C [20]: 46.3% | viability, T/C [21]: 35.7% | viability, T/C [22]: 23.1% | viability, T/C [23]: 19.9%

Cn1ncnc1[C@H]1c2n[nH]c(=O)c3cc(F)cc(c23)N[C@@H]1c1ccc(F)cc1
viability, T/C (compound 0.000316 µM): 109% and 99% | viability, T/C (compound 0.001 µM): 106% and 99.6% | viability, T/C (compound 0.00316 µM): 99.2% and 92.1% | viability, T/C (compound 0.01 µM): 74.8% and 65.7% | viability, T/C (compound 0.0316 µM): 47.8% and 39% | viability, T/C (compound 0.1 µM): 26.5% and 21.4% | IC50 (curve of compound): 28 nM and 19.6 nM

CC1(C)CCC(CN2CCN(c3ccc(C(=O)NS(=O)(=O)c4ccc(NCC5CCOCC5)c([N+](=O)[O-])c4)c(Oc4cnc5[nH]ccc5c4)c3)CC2)=C(c2ccc(Cl)cc2)C1 + CC(C)NCC(C(=O)N1CCN(c2ncnc3c2C(C)CC3O)CC1)c1ccc(Cl)cc1
IC50 [3]: 5370 nM | IC50 [4]: 3980 nM | IC50 [5]: 3500 nM | IC50 [24]: < 31.6 nM | IC50 [25]: < 31.6 nM | viability, T/C [10]: 92.4% | viability, T/C [11]: 96.7% | viability, T/C (second compound 0.1 µM, first compound 0.316 µM): 88.8% | viability, T/C (second compound 0.1 µM, first compound 1 µM): 91.6% | viability, T/C (second compound 0.1 µM, first compound 3.16 µM): 84.7% | viability, T/C (second compound 0.1 µM, first compound 10 µM): 9.23% | viability, T/C [16]: 84.1% | viability, T/C [17]: 76.2% | viability, T/C (second compound 0.316 µM, first compound 0.316 µM): 73% | viability, T/C (second compound 0.316 µM, first compound 1 µM): 71.5% | viability, T/C (second compound 0.316 µM, first compound 3.16 µM): 62.9% | viability, T/C (second compound 0.316 µM, first compound 10 µM): 5.02% | viability, T/C [22]: 61.5% | viability, T/C [23]: 57.1% | viability, T/C (second compound 1 µM, first compound 0.316 µM): 56% | viability, T/C (second compound 1 µM, first compound 1 µM): 51.7% | viability, T/C (second compound 1 µM, first compound 3.16 µM): 54.8% | viability, T/C (second compound 1 µM, first compound 10 µM): 2.82% | viability, T/C [26]: 43.8% | viability, T/C [27]: 43.9% | viability, T/C (second compound 3.16 µM, first compound 0.316 µM): 43.5% | viability, T/C (second compound 3.16 µM, first compound 1 µM): 42.7% | viability, T/C (second compound 3.16 µM, first compound 3.16 µM): 42.9% | viability, T/C (second compound 3.16 µM, first compound 10 µM): 1.99% | viability, T/C [28]: 34.7% | viability, T/C [29]: 30.8% | viability, T/C (second compound 10 µM, first compound 0.316 µM): 31.3% | viability, T/C (second compound 10 µM, first compound 1 µM): 31.1% | viability, T/C (second compound 10 µM, first compound 3.16 µM): 26.6% | viability, T/C (second compound 10 µM, first compound 10 µM): 0.91%

Cn1cnc2c(F)c(Nc3ccc(Br)cc3Cl)c(C(=O)NOCCO)cc21 + CCN1CCN(Cc2ccc(Nc3ncc(F)c(-c4cc(F)c5nc(C)n(C(C)C)c5c4)n3)nc2)CC1
IC50 [1]: 190 nM | IC50 [2]: 19.5 nM | IC50 [3]: < 9.49 nM | IC50 [4]: < 9.49 nM | IC50 [5]: < 9.49 nM | viability, T/C (second compound 0.01 µM, first compound 0.00949 µM): 79.8% | viability, T/C (second compound 0.01 µM, first compound 0.03 µM): 64.2% | viability, T/C (second compound 0.01 µM, first compound 0.0949 µM): 53.6% | viability, T/C (second compound 0.01 µM, first compound 0.3 µM): 48.5% | viability, T/C (second compound 0.01 µM, first compound 0.949 µM): 38.1% | viability, T/C (second compound 0.01 µM, first compound 3 µM): 24.4% | viability, T/C (second compound 0.0316 µM, first compound 0.00949 µM): 54.8% | viability, T/C (second compound 0.0316 µM, first compound 0.03 µM): 46.3% | viability, T/C (second compound 0.0316 µM, first compound 0.0949 µM): 40.3% | viability, T/C (second compound 0.0316 µM, first compound 0.3 µM): 39% | viability, T/C (second compound 0.0316 µM, first compound 0.949 µM): 31.6% | viability, T/C (second compound 0.0316 µM, first compound 3 µM): 22% | viability, T/C (second compound 0.1 µM, first compound 0.00949 µM): 48.9% | viability, T/C (second compound 0.1 µM, first compound 0.03 µM): 42.7% | viability, T/C (second compound 0.1 µM, first compound 0.0949 µM): 39.5% | viability, T/C (second compound 0.1 µM, first compound 0.3 µM): 33.9% | viability, T/C (second compound 0.1 µM, first compound 0.949 µM): 28.5% | viability, T/C (second compound 0.1 µM, first compound 3 µM): 20.9% | viability, T/C (second compound 0.316 µM, first compound 0.00949 µM): 42.9% | viability, T/C (second compound 0.316 µM, first compound 0.03 µM): 41.7% | viability, T/C (second compound 0.316 µM, first compound 0.0949 µM): 35.9% | viability, T/C (second compound 0.316 µM, first compound 0.3 µM): 33% | viability, T/C (second compound 0.316 µM, first compound 0.949 µM): 24.6% | viability, T/C (second compound 0.316 µM, first compound 3 µM): 20.3% | viability, T/C (second compound 1 µM, first compound 0.00949 µM): 45.3% | viability, T/C (second compound 1 µM, first compound 0.03 µM): 43% | viability, T/C (second compound 1 µM, first compound 0.0949 µM): 36.5% | viability, T/C (second compound 1 µM, first compound 0.3 µM): 29.4% | viability, T/C (second compound 1 µM, first compound 0.949 µM): 26.3% | viability, T/C (second compound 1 µM, first compound 3 µM): 17.8%

Cn1ncnc1[C@H]1c2n[nH]c(=O)c3cc(F)cc(c23)N[C@@H]1c1ccc(F)cc1 + CC(C)NCC(C(=O)N1CCN(c2ncnc3c2C(C)CC3O)CC1)c1ccc(Cl)cc1
IC50 [3]: 23.7 nM | IC50 [4]: 8.7 nM | IC50 [5]: 1.57 nM | IC50 [24]: 0.58 nM | IC50 [25]: < 0.316 nM | viability, T/C [6]: 94.7% | viability, T/C [7]: 93.1% | viability, T/C [8]: 83.7% | viability, T/C [9]: 69.7% | viability, T/C [10]: 43.1% | viability, T/C [11]: 25.1% | viability, T/C [12]: 74.5% | viability, T/C [13]: 71.6% | viability, T/C [14]: 64% | viability, T/C [15]: 47.8% | viability, T/C [16]: 31.1% | viability, T/C [17]: 20.6% | viability, T/C [18]: 60% | viability, T/C [19]: 57.8% | viability, T/C [20]: 39.7% | viability, T/C [21]: 36.6% | viability, T/C [22]: 25.8% | viability, T/C [23]: 14.7% | viability, T/C (second compound 3.16 µM, first compound 0.000316 µM): 48.7% | viability, T/C (second compound 3.16 µM, first compound 0.001 µM): 53.4% | viability, T/C (second compound 3.16 µM, first compound 0.00316 µM): 37.8% | viability, T/C (second compound 3.16 µM, first compound 0.01 µM): 26.7% | viability, T/C [26]: 21.1% | viability, T/C [27]: 12.8% | viability, T/C (second compound 10 µM, first compound 0.000316 µM): 39% | viability, T/C (second compound 10 µM, first compound 0.001 µM): 35.2% | viability, T/C (second compound 10 µM, first compound 0.00316 µM): 26.9% | viability, T/C (second compound 10 µM, first compound 0.01 µM): 20.7% | viability, T/C [28]: 14.8% | viability, T/C [29]: 10.4%
